US9962334B2, “Ophthalmic device having therapeutic agent delivery capability and method of forming same” (Novartis AG, priority 2008, dated 2018)
Marks after values point to notes of the source that are not given here.

What was measured:
[1] = cited from earlier work
[2] = cited from earlier work; remark: listed apart in the source
[3] = test system: LEC migration and proliferation; assay: In vitro inhibition of LEC migration and proliferation; type: cell-based; conditions: in vitro studies

Row | Structure (SMILES) | Exp. Log P/Hydrophobicity [1] | log P (PC log P) [1] | further results
1 | O=C1O[C@H]([C@@H](O)CO)C(O)=C1O [Ascorbic Acid] | −0.5 | – | –
2 | Nc1c(CC(=O)O)cccc1C(=O)c1ccc(Br)cc1 [Bromfenac] | – | – | Water Solubility [2]: 0.0126 mg/mL
3 | COc1cc2c(c(OC)c1OC)-c1ccc(OC)c(=O)cc1[C@@H](NC(C)=O)CC2 [Colchicine] | 1.3 | 1.3 | concentration as low as which LEC migration and proliferation was inhibited [3]: 0.0005 mg/mL
4 | O=C(O)Cc1ccccc1Nc1c(Cl)cccc1Cl [Diclofenac Sodium] | – | 1.1 | –
5 | O=C(O)Cc1ccccc1Nc1c(Cl)cccc1Cl [Diclofenac] | – | – | soluble in water up to [2]: up to 50 mg/mL
6 | O=C(c1ccccc1)c1ccc2n1CCC2C(=O)O (stereo not drawn) [Ketorolac] | 2.1 | – | Water Solubility [2]: 25 mg/mL
7 | CO[C@@]12[C@H](COC(N)=O)C3=C(C(=O)C(C)=C(N)C3=O)N1C[C@@H]1N[C@@H]12 [Mitomycin-C] | – | – | concentration as low as which LEC migration and proliferation was inhibited [3]: 0.0005 mg/mL
8 | NC(=O)Cc1cccc(C(=O)c2ccccc2)c1N [Nepafenac] | 2.11* | 2.1 | –
